Each structure is given as a SMILES string.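 Grown in 96-well plates, cells were treated for 48 hours with each compound at five concentrations. Insufficient inhibition: endpoint recorded as highest concentration tested. GI50 = concentration required for 50% inhibition of growth.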 Calls of active or inactive are those of the source. No stated cut-off is given here; in the data, active = GI50 up to about 1.1 µM and inactive = higher. Some results are limits rather than exact numbers.

Some test systems named below: HL-60; NCI-H522; SF-268; DMS-273; OVCAR-4; RPMI-8226; CAKI-1; UO-31; SN12C; EKVX; HOP-92; SW-620; HCC 2998; TK-10; OVCAR-8.
Common to all, as to test: NCI anticancer screen, dose series, 48 h

`CCCCCCCCCC(=O)OCC1OC(n2cc(F)c(=O)[nH]c2=O)C(NC(=O)OCc2ccccc2)C(OC(=O)CCCCCCCCC)C1O` (centres undefined): the GI50 in the test with HL-60 is 24.1 µM (inactive); in the test on NCI-H522 it was 20.9 µM (inactive); in the test with SF-268, 51.4 µM (inactive); with DMS-273 it was 36.8 µM (inactive); in the test with OVCAR-4 it was 16.6 µM (inactive); in the test with RPMI-8226, 21.4 µM (inactive). Besides, the GI50 in the test on CAKI-1 was > 100 µM (inactive); in the test with UO-31, 40.2 µM (inactive); with SN12C it was 15.8 µM (inactive); in the test on EKVX, 31.6 µM (inactive); with HOP-92 it was 18.2 µM (inactive); in the test on SW-620 it was 26.4 µM (inactive). Moreover, the figures for the GI50 with HCC 2998, in the test with TK-10 and in the test on OVCAR-8 were 41.2 µM (inactive), 80.9 µM (inactive) and 24.3 µM (inactive), respectively.
Turning to `C[C@@]1(O)CC[C@]2(C)C3CCCC3[C@H]12` (some centres undefined), the GI50 with HL-60, with NCI-H522, with SF-268, with DMS-273, with OVCAR-4 and with RPMI-8226 was > 100 µM (inactive) each time. Also, the GI50 in the test with CAKI-1, in the test with UO-31, in the test on SN12C, in the test on EKVX, with HOP-92 and with SW-620 was > 100 µM (inactive) in each case. In addition, the GI50 in the test on HCC 2998, in the test on TK-10 and in the test with OVCAR-8 was > 100 µM (inactive) throughout.
With `COc1ccccc1C12OC(=O)C1(C)Oc1ccccc1C2=O` (centres undefined), the GI50 in the test on HL-60 is > 100 µM (inactive); in the test with SF-268 it was > 100 µM (inactive); with DMS-273, 22.5 µM (inactive); in the test on OVCAR-4 it was > 100 µM (inactive); with RPMI-8226, > 100 µM (inactive); with UO-31, > 100 µM (inactive). Besides, the GI50 was > 100 µM (inactive) with SN12C; > 100 µM (inactive) in the test with EKVX; 65 µM (inactive) with HOP-92; > 100 µM (inactive) in the test with SW-620; > 100 µM (inactive) with HCC 2998; > 100 µM (inactive) in the test on TK-10. Moreover, the GI50 in the test on OVCAR-8 was > 100 µM (inactive).
In the case of `COc1cc([C@@H]2c3cc4c(cc3[C@@H](NC(=O)c3ccc([N+](=O)[O-])cc3)C3COC(=O)[C@@H]32)OCO4)cc(OC)c1O` (some centres undefined), the GI50 was 0.0432 µM (active) in the test with HL-60; 0.508 µM (active) in the test with NCI-H522; 1.6 µM (inactive) in the test with SF-268; 0.111 µM (active) in the test with DMS-273; 8.04 µM (inactive) in the test on OVCAR-4; 0.256 µM (active) in the test with RPMI-8226. In addition, the GI50 in the test with CAKI-1 is 0.569 µM (active); in the test on UO-31 it was 2.63 µM (inactive); in the test with SN12C, 0.215 µM (active); with EKVX it was 0.975 µM (active); in the test on HOP-92 it was 0.7 µM (active); with SW-620, 0.147 µM (active). Also, the GI50 in the test on HCC 2998 was 1.22 µM (inactive); in the test on TK-10, 2.03 µM (inactive); with OVCAR-8, 0.923 µM (active).
As to `O=C(c1ccccc1)C1(Br)S(=O)(=O)OCCOS1(=O)=O`, the GI50 with HL-60, in the test on NCI-H522, in the test with SF-268, in the test on DMS-273, with OVCAR-4 and in the test on RPMI-8226 was > 100 µM (inactive) each time. Besides, the GI50 with UO-31, in the test with SN12C, in the test with EKVX, in the test with HOP-92, in the test with SW-620 and with HCC 2998 was > 100 µM (inactive) in each case. In addition, the GI50 in the test on TK-10 and with OVCAR-8 was > 100 µM (inactive) each time.
`NC1=NN(c2ccccc2)C(=O)C1/C(=N\NC(=O)c1cc2ccccc2cc1O)C(=O)Nc1ccc(Cl)cc1` (centres undefined): the GI50 in the test with HL-60 was 3.57 µM (inactive); in the test on NCI-H522, 20.4 µM (inactive); in the test on SF-268 it was 12.7 µM (inactive); in the test with DMS-273, 20.2 µM (inactive); in the test with OVCAR-4 it was 18.5 µM (inactive); in the test with RPMI-8226 it was 22.6 µM (inactive). The GI50 in the test on CAKI-1 is 31 µM (inactive); in the test on UO-31 it was 21.8 µM (inactive); in the test with SN12C it was 36.8 µM (inactive); with EKVX, 22.8 µM (inactive); in the test on HOP-92, 23.1 µM (inactive); in the test on SW-620 it was 32.1 µM (inactive). Moreover, the GI50 in the test on HCC 2998 is 28.9 µM (inactive); in the test on TK-10 it was 37.1 µM (inactive); in the test on OVCAR-8, 20.8 µM (inactive).
For the compound `O=C(NC1C2CC3CC(C2)CC1C3)/C(Cl)=C1/Sc2ccccc2NC1=O` (centres undefined), the GI50 in the test with HL-60 was 62.2 µM (inactive); with NCI-H522, > 100 µM (inactive); in the test on SF-268, > 100 µM (inactive); in the test on DMS-273, > 49 µM (inactive); with OVCAR-4, > 100 µM (inactive); in the test on CAKI-1, > 100 µM (inactive). Besides, the GI50 with UO-31 was 58.9 µM (inactive); with SN12C, > 100 µM (inactive); in the test with EKVX, > 100 µM (inactive); in the test with HOP-92, > 76.4 µM (inactive); in the test with SW-620 it was > 100 µM (inactive); in the test on HCC 2998, > 80 µM (inactive). Also, the GI50 is > 64.6 µM (inactive) in the test on TK-10 and > 100 µM (inactive) with OVCAR-8.
Consider `OC1OCC(COc2cc(Cl)c(Cl)cc2Cl)OC1O` (centres undefined), for which the GI50 in the test with HL-60 was 26.2 µM (inactive); in the test on NCI-H522 it was 23.6 µM (inactive); in the test on SF-268, 68.2 µM (inactive); with DMS-273, 36.4 µM (inactive); with OVCAR-4, 31.8 µM (inactive); in the test with RPMI-8226, 26.7 µM (inactive). Besides, the GI50 in the test on CAKI-1 was 33.1 µM (inactive); in the test on UO-31 it was 41.9 µM (inactive); in the test on SN12C it was 38.2 µM (inactive); in the test with EKVX, 34.3 µM (inactive); in the test on HOP-92, 56.1 µM (inactive); in the test with SW-620, 19.1 µM (inactive). Also, the GI50 in the test on HCC 2998 is 30.4 µM (inactive); with TK-10, > 100 µM (inactive); in the test on OVCAR-8, 36.8 µM (inactive).
For `COc1cc(/C=C/c2ccc(OC)c(O)c2)cc(OC)c1`, the GI50 is 1.75 µM (inactive) with HL-60; 1.69 µM (inactive) with NCI-H522; 8.55 µM (inactive) in the test with SF-268; 15.2 µM (inactive) in the test with DMS-273; 14.3 µM (inactive) in the test with OVCAR-4; 2.19 µM (inactive) in the test with RPMI-8226. Further, the GI50 with CAKI-1 is 25.5 µM (inactive); in the test with UO-31 it was 9.46 µM (inactive); with SN12C it was 8.51 µM (inactive); with EKVX it was 9.66 µM (inactive); with HOP-92, 7.71 µM (inactive); in the test with SW-620, 3.82 µM (inactive). For the same compound, the GI50 with HCC 2998 is 20.3 µM (inactive); with TK-10, 37.3 µM (inactive); with OVCAR-8, 5.92 µM (inactive).
On to `COc1ccc(/C=C\c2cc(OC)c(OC)c(OC)c2)cc1`, for which the GI50 is 0.000244 µM (active) with HL-60; 0.000364 µM (active) with NCI-H522; 0.000766 µM (active) in the test with SF-268; 0.000273 µM (active) in the test on DMS-273; 0.00049 µM (active) in the test with RPMI-8226; < 0.01 µM (active) with CAKI-1. The GI50 is < 0.01 µM (active) with UO-31; 0.000843 µM (active) with SN12C; 0.00264 µM (active) with EKVX; 0.0127 µM (active) with HOP-92; 0.000237 µM (active) in the test on SW-620; 0.0385 µM (active) in the test on HCC 2998. Moreover, the GI50 in the test with OVCAR-8 was 0.000832 µM (active).
